Test results reported in patent publication US8247211B2, “Glycopeptide antibiotics” (American Cyanamid Company, priority 2001, dated 2012).
Values after ≈ are worked out from the molar mass of the structure shown.

Tests used:
Assay in all cases: In vitro antibacterial evaluation: minimum inhibitory concentration (MIC), broth dilution method
Format in all cases: cell-based
Streptococcus sp. = system: Streptococcus sp.
Procedure, shortened: (§1)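 Following NCCLS approved standard M7-A2, compounds are serially diluted from 64 to 0.06 μg/mL in Muller-Hinton II […] and inoculated at 5×10^5 CFU/mL; the MIC is the minimum concentration at which growth is inhibited.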

Escherichia coli = system: Escherichia coli
Procedure, shortened: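 NCCLS M7-A2 broth dilution; Muller-Hinton II […]; 5×10^5 CFU/mL; 64-0.06 μg/mL. MIC = lowest concentration with no growth.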

Enterococcus sp. = system: Enterococcus sp.
Procedure, shortened: as §1

Staphylococcus sp. = conditions: for MIC Staphylococcus aureus (ATCC 29213) / MIC Staphylococcus aureus (GC 1131) / MIC Staphylococcus aureus (GC 3051) / MIC Staphylococcus aureus (GC 3053) / MIC Staphylococcus aureus (GC 4541) / MIC Staphylococcus aureus (GC 4542) / MIC Staphylococcus aureus (GC 4544) / MIC Staphylococcus aureus (GC 4545): broth dilution, 18 hours at 35° C.
Procedure, shortened: as §1

[1] = broth dilution, inoculum 5×10^5 CFU/mL, 18 hours at 35° C.

For `CC(c1ccccc1)C1NC(=O)CNC(=O)C(CO)NC(=O)C(C(O)C2CNC(=N)N2C2OC(CO)C(O)C(O)C2O)NC(=O)C(C(O)C2CNC(=N)N2)NC(=O)C(Cc2ccc(OC3OC(CO)C(OC4OC5COC(c6ccc(Oc7ccc(C(C)(C)C)cc7)cc6)OC5C(O)C4O)C(O)C3O)cc2)NC1=O` (stereo not drawn) [Example 181, Cyclo[glycyl-β-methylphenylalanyl-O-[4-O-[4,6-O-[4-(4-tert-butylphenoxy)benzylidene]hexopyranosyl]hexopyranosyl]tyrosyl-3-(2-iminoimidazolidin-4-yl)seryl-3-(3-hexopyranosyl-2-iminoimidazolidin-4-yl)serylseryl]], the “MIC Streptococcus agalactiae (GC 4564)” value (Streptococcus sp.; [1]) was under 0.06 µg/mL, the “MIC Streptococcus pneumoniae (ATCC 6301)” value (Streptococcus sp.; [1]) was under 0.06 µg/mL and the “MIC Streptococcus pneumoniae (GC 1894)” value (Streptococcus sp.; [1]) was under 0.06 µg/mL. The “MIC Streptococcus pneumoniae (GC 4565)” value (Streptococcus sp.; [1]) was under 0.06 µg/mL, the “MIC Streptococcus pyogenes (GC 4563)” value (Streptococcus sp.; [1]) was 0.5 µg/mL (≈ 0.326 µM) and the “MIC Streptococcus pneumoniae (ATCC 6301)” value (Streptococcus sp.; strain ATCC 6301) was under 0.06 µg/mL. The “MIC Streptococcus pneumoniae (GC 1894)” value (Streptococcus sp.; strain GC 1894) was under 0.06 µg/mL, the “MIC Streptococcus pyogenes (GC 4563)” value (Streptococcus sp.; strain GC 4563) was 0.5 µg/mL (≈ 0.326 µM) and the “MIC Streptococcus agalactiae (GC 4564)” value (Streptococcus sp.; strain GC 4564) was under 0.06 µg/mL. The “MIC Streptococcus pneumoniae (GC 4565)” value (Streptococcus sp.; strain GC 4565) was under 0.06 µg/mL, the “MIC Escherichia coli (ATCC 25922)” value (Escherichia coli; strain ATCC 25922) was over 64 µg/mL and the “MIC Escherichia coli (GC 4559)” value (Escherichia coli; strain GC 4559) was over 64 µg/mL. The “MIC Escherichi coli (GC 4560)” value (Escherichia coli; strain GC 4560) was 16 µg/mL (≈ 10.4 µM), the “MIC Enterococcus avium (GC 4558)” value (Enterococcus sp.; [1]) was 4 µg/mL (≈ 2.61 µM) and the “MIC Enterococcus faecalis (ATCC 29212)” value (Enterococcus sp.; [1]) was 2 µg/mL (≈ 1.31 µM). For the same molecule, the “MIC Enterococcus faecalis (GC 2242)” value (Enterococcus sp.; [1]) was 2 µg/mL (≈ 1.31 µM), the “MIC Enterococcus faecalis (GC 2691)” value (Enterococcus sp.; [1]) was 4 µg/mL (≈ 2.61 µM) and the “MIC Enterococcus faecalis (GC 3059)” value (Enterococcus sp.; [1]) was 4 µg/mL (≈ 2.61 µM). The “MIC Enterococcus faecalis (GC 4552)” value (Enterococcus sp.; [1]) was 2 µg/mL (≈ 1.31 µM), the “MIC Enterococcus faecalis (GC 4553)” value (Enterococcus sp.; [1]) was 1 µg/mL (≈ 0.653 µM) and the “MIC Enterococcus faecalis (GC 4554)” value (Enterococcus sp.; [1]) was 2 µg/mL (≈ 1.31 µM). The “MIC Enterococcus faecalis (GC 6189)” value (Enterococcus sp.; [1]) was 2 µg/mL (≈ 1.31 µM), the “MIC Enterococcus faecium (GC 2243)” value (Enterococcus sp.; [1]) was 2 µg/mL (≈ 1.31 µM) and the “MIC Enterococcus faecium (GC 4556)” value (Enterococcus sp.; [1]) was 4 µg/mL (≈ 2.61 µM). For the same molecule, the “MIC Enterococcus faecium (GC 4557)” value (Enterococcus sp.; [1]) was 4 µg/mL (≈ 2.61 µM), the “MIC Enterococcus faecalis (ATCC 29212)” value (Enterococcus sp.; strain ATCC 29212) was 2 µg/mL (≈ 1.31 µM) and the “MIC Enterococcus faecalis (GC 2242)” value (Enterococcus sp.; strain GC 2242) was 2 µg/mL (≈ 1.31 µM). The “MIC Enterococcus faecium (GC 2243)” value (Enterococcus sp.; strain GC 2243) was 2 µg/mL (≈ 1.31 µM), the “MIC Enterococcus faecalis (GC 2691)” value (Enterococcus sp.; strain GC 2691) was 4 µg/mL (≈ 2.61 µM) and the “MIC Enterococcus faecalis (GC 3059)” value (Enterococcus sp.; strain GC 3059) was 4 µg/mL (≈ 2.61 µM). For the same molecule, the “MIC Enterococcus faecalis (GC 4552)” value (Enterococcus sp.; strain GC 4552) was 2 µg/mL (≈ 1.31 µM), the “MIC Enterococcus faecalis (GC 4553)” value (Enterococcus sp.; strain GC 4553) was 1 µg/mL (≈ 0.653 µM) and the “MIC Enterococcus faecalis (GC 4554)” value (Enterococcus sp.; strain GC 4554) was 2 µg/mL (≈ 1.31 µM). For the same molecule, the “MIC Enterococcus faecium (GC 4556)” value (Enterococcus sp.; strain GC 4556) was 4 µg/mL (≈ 2.61 µM), the “MIC Enterococcus faecium (GC 4557)” value (Enterococcus sp.; strain GC 4557) was 4 µg/mL (≈ 2.61 µM) and the “MIC Enterococcus avium (GC 4558)” value (Enterococcus sp.; strain GC 4558) was 4 µg/mL (≈ 2.61 µM). The “MIC Enterococcus faecalis (GC 6189)” value (Enterococcus sp.; strain GC 6189) was 2 µg/mL (≈ 1.31 µM), the “MIC Staphylococcus aureus (ATCC 29213)” value (Staphylococcus sp.; 5×10^5 CFU/mL) was 4 µg/mL (≈ 2.61 µM) and the “MIC Staphylococcus aureus (GC 1131)” value (Staphylococcus sp.; 5×10^5 CFU/mL) was 4 µg/mL (≈ 2.61 µM). For the same molecule, the “MIC Staphylococcus aureus (GC 3051)” value (Staphylococcus sp.; 5×10^5 CFU/mL) was 4 µg/mL (≈ 2.61 µM), the “MIC Staphylococcus aureus (GC 3053)” value (Staphylococcus sp.; 5×10^5 CFU/mL) was 4 µg/mL (≈ 2.61 µM) and the “MIC Staphylococcus aureus (GC 4541)” value (Staphylococcus sp.; 5×10^5 CFU/mL) was 4 µg/mL (≈ 2.61 µM). The “MIC Staphylococcus aureus (GC 4542)” value (Staphylococcus sp.; 5×10^5 CFU/mL) was 4 µg/mL (≈ 2.61 µM), the “MIC Staphylococcus aureus (GC 4544)” value (Staphylococcus sp.; 5×10^5 CFU/mL) was 4 µg/mL (≈ 2.61 µM) and the “MIC Staphylococcus aureus (GC 4545)” value (Staphylococcus sp.; 5×10^5 CFU/mL) was 4 µg/mL (≈ 2.61 µM). For the same molecule, the “MIC Staphylococcus aureus (ATCC 29213)” value (Staphylococcus sp.; strain ATCC 29213) was 4 µg/mL (≈ 2.61 µM), the “MIC Staphylococcus aureus (GC 1131)” value (Staphylococcus sp.; strain GC 1131) was 4 µg/mL (≈ 2.61 µM) and the “MIC Staphylococcus aureus (GC 3051)” value (Staphylococcus sp.; strain GC 3051) was 4 µg/mL (≈ 2.61 µM). The “MIC Staphylococcus aureus (GC 3053)” value (Staphylococcus sp.; strain GC 3053) was 4 µg/mL (≈ 2.61 µM), the “MIC Staphylococcus aureus (GC 4541)” value (Staphylococcus sp.; strain GC 4541) was 4 µg/mL (≈ 2.61 µM) and the “MIC Staphylococcus aureus (GC 4542)” value (Staphylococcus sp.; strain GC 4542) was 4 µg/mL (≈ 2.61 µM). For the same molecule, the “MIC Staphylococcus aureus-SMITH (GC 4543)” value (Staphylococcus sp.; strain GC 4543) was 4 µg/mL (≈ 2.61 µM), the “MIC Staphylococcus aureus (GC 4544)” value (Staphylococcus sp.; strain GC 4544) was 4 µg/mL (≈ 2.61 µM) and the “MIC Staphylococcus aureus (GC 4545)” value (Staphylococcus sp.; strain GC 4545) was 4 µg/mL (≈ 2.61 µM). For the same molecule, the “MIC Staphylococcus haemolyticus (GC 4546)” value (Staphylococcus sp.; strain GC 4546) was 8 µg/mL (≈ 5.22 µM), the “MIC Coagulase Negative Staphylococcus (GC 4547)” value (Staphylococcus sp.; strain GC 4547) was 8 µg/mL (≈ 5.22 µM) and the “MIC Coagulase Negative Staphylococcus (GC 4548)” value (Staphylococcus sp.; strain GC 4548) was 2 µg/mL (≈ 1.31 µM). For the same molecule, the “MIC Coagulase Negative Staphylococcus (GC 4549)” value (Staphylococcus sp.; strain GC 4549) was 1 µg/mL (≈ 0.653 µM), the “MIC Coagulase Negative Staphylococcus (GC 4551)” value (Staphylococcus sp.; strain GC 4551) was 2 µg/mL (≈ 1.31 µM) and the “MIC Coagulase Negative Staphylococcus (GC 6257)” value (Staphylococcus sp.; strain GC 6257) was 2 µg/mL (≈ 1.31 µM).
